Experimental data taken from patent US20250161501A1, “Radiolabeled Compounds for Imaging of Fibroblast Activation Protein (FAP) and Treatment of FAP-Related Disorders” (Provincial Health Services Authority, priority 2022, published 2025).

Legend:
[1] = system: HEK293T:hFAP tumor xenografts; assay: Ex vivo biodistribution of 68Ga-labeled tracers in HEK293T:hFAP tumor-bearing mice
Experimental: (§1) All imaging and biodistribution studies were performed using male NOD-scidIL2Rg^null (NRG) mice and conducted according to the guidelines established by the Canadian Council on Animal Care and approved by Animal Ethics Committee of the University of British Columbia. For tumor inoculations, mice were anesthetized by inhalation with 2% isoflurane in oxygen and implanted subcutaneously with 7.5×10^6 HEK293T:hFAP or U87 cells below the left shoulder. Imaging and biodistribution studies were performed only after tumors grew to 5-8 mm in diameter.
For ex vivo biodistribution studies, mice were injected with -1-3 MBq of the ^68Ga-labeled tracer. Mice were allowed to recover and roam freely in the cages after injecting the tracer. […] The uptake in each organ/tissue was normalized to the injected dose and expressed as the percentage of the injected dose per gram of tissue (% ID/g).
Biodistribution data for ^68Ga-SB03178, ^68Ga-SB04033, and ^68Ga-FAPI-4 in mice bearing FAP tumor xenografts are presented in Tables 5-7. Data are presented as mean±SD % ID/g.

FAP = target: T1, FAP (Homo sapiens, UniProt Q12884); conditions: literature [25]; cited from earlier work
T1 sequence (Q12884 1-760): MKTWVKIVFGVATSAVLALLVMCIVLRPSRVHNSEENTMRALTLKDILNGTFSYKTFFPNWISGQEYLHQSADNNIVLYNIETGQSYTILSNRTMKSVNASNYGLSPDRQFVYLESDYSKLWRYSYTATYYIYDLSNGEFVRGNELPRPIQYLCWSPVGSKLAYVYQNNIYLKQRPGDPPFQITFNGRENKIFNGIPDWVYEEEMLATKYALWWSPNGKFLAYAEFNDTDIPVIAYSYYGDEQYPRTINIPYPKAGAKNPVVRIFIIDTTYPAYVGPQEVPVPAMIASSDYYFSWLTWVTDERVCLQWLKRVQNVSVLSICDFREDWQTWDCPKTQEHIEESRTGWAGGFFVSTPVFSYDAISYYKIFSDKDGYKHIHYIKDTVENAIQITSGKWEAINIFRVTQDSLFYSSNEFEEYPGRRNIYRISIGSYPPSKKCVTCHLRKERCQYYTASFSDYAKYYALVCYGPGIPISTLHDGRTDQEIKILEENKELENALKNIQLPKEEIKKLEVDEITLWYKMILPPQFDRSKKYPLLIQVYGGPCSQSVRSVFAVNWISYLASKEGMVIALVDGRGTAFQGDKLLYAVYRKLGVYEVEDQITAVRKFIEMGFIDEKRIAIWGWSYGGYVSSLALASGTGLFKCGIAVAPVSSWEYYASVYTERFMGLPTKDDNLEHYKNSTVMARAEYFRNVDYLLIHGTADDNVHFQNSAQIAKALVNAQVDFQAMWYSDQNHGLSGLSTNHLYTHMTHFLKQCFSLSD

U87 xenografts = assay: Ex vivo biodistribution of 68Ga-labeled tracer in U87 tumor-bearing mice; conditions: U87 tumor model, mean±SD
Experimental: as §1
For ex vivo biodistribution studies, mice were injected with -1-3 MBq of the ^68Ga-labeled tracer. Mice were allowed to recover and roam freely in the cages after injecting the tracer. […] The uptake in each organ/tissue was normalized to the injected dose and expressed as the percentage of the injected dose per gram of tissue (% ID/g). […]

[2] = HEK293T:hFAP tumor xenograft mice, 1 h post-injection, Table 5, mean±SD
[3] = HEK293T:hFAP tumor model, 1 h post-injection (n = 4), mean±SD
[4] = HEK293T:hFAP tumor model, 3 h post-injection (n = 2), mean±SD

With `N#C[C@@H]1CC(F)(F)CN1C(=O)CNC(=O)c1ccnc2ccc(OCCCN3CCN(C(=O)CN4CCN(CC(=O)O)CCN(CC(=O)O)CCN(CC(=O)O)CC4)CC3)cc12` [^68Ga-FAPI-4, metal not drawn, reference compound] the “Biodistribution: Adrenal Glands” value [1, 2] was 1.09 ± 0.31 % ID/g, the “Biodistribution: Blood” value [1, 2] was 1.09 ± 0.08 % ID/g and the “Biodistribution: Bone” value [1, 2] was 3.39 ± 1.03 % ID/g. For the same compound, the “Biodistribution: Brain” value [1, 2] was 0.05 ± 0.01 % ID/g, the “Biodistribution: Fat” value [1, 2] was 0.11 ± 0.02 % ID/g and the “Biodistribution: Heart” value [1, 2] was 0.35 ± 0.03 % ID/g. For the same compound, the “Biodistribution: Kidneys” value [1, 2] was 1.86 ± 0.10 % ID/g, the “Biodistribution: Liver” value [1, 2] was 0.37 ± 0.02 % ID/g and the “Biodistribution: Lungs” value [1, 2] was 0.75 ± 0.09 % ID/g. The “Biodistribution: Muscle” value [1, 2] was 0.68 ± 0.04 % ID/g, the “Biodistribution: Pancreas” value [1, 2] was 0.38 ± 0.04 % ID/g and the “Biodistribution: Spleen” value [1, 2] was 0.57 ± 0.13 % ID/g. The “Biodistribution: Stomach” value [1, 2] was 0.07 ± 0.02 % ID/g, the “Biodistribution: Testes” value [1, 2] was 0.29 ± 0.04 % ID/g and the “Biodistribution: Tumor” value [1, 2] was 12.7±2.19 % ID/g. The “Tumor uptake over time” value (FAP) was “reduced quickly over time”.

For `N#C[C@@H]1CCCN1C(=O)CNC(=O)c1ccnc2ccc(OCCCN3CCN(C(=O)CN4CCN(CC(=O)O)CCN(CC(=O)O)CCN(CC(=O)O)CC4)CC3)cc12` [^68Ga-FAPI-2, metal not drawn], the “Tumor uptake over time” value (FAP) is listed as “reduced quickly over time”.

With `N#C[C@@H]1CC(F)(F)CN1C(=O)CNC(=O)c1ccnc2c1cc(OCCCN1CCN(C(=O)CN3CCN(CC(=O)O)CCN(CC(=O)O)CCN(CC(=O)O)CC3)CC1)c1ccccc12` [^68Ga-SB03178, metal not drawn] the “Uptake in HEK293T:hFAP tumor xenografts, comparison in words” value ([1]; 68Ga-SB03178 vs 68Ga-FAPI-4, 68Ga-SB04033 vs 68Ga-SB03178) was “higher uptake”, the “Biodistribution: Adrenal Glands” value [1, 3] was 3.01 ± 2.86 % ID/g and the “Biodistribution: Blood” value [1, 3] was 2.59 ± 0.32 % ID/g. The “Biodistribution: Bone” value [1, 3] was 1.89 ± 0.31 % ID/g, the “Biodistribution: Brain” value [1, 3] was 0.06 ± 0.01 % ID/g and the “Biodistribution: Fat” value [1, 3] was 0.22 ± 0.03 % ID/g. For the same compound, the “Biodistribution: Heart” value [1, 3] was 0.71 ± 0.09 % ID/g, the “Biodistribution: Kidneys” value [1, 3] was 9.58 ± 1.21 % ID/g and the “Biodistribution: Large Intestines” value [1, 3] was 0.52 ± 0.21 % ID/g. For the same compound, the “Biodistribution: Liver” value [1, 3] was 1.11 ± 0.15 % ID/g, the “Biodistribution: Lungs” value [1, 3] was 1.66 ± 0.23 % ID/g and the “Biodistribution: Muscle” value [1, 3] was 0.56 ± 0.08 % ID/g. The “Biodistribution: Pancreas” value [1, 3] was 0.57 ± 0.05 % ID/g, the “Biodistribution: Small Intestine” value [1, 3] was 1.04 ± 0.14 % ID/g and the “Biodistribution: Spleen” value [1, 3] was 0.87 ± 0.30 % ID/g. For the same compound, the “Biodistribution: Stomach” value [1, 3] was 0.27 ± 0.19 % ID/g, the “Biodistribution: Testes” value [1, 3] was 0.44 ± 0.08 % ID/g and the “Biodistribution: Tumor” value [1, 3] was 21.0 ± 3.84 % ID/g. The “Biodistribution: Adrenal Glands” value [1, 4] was 0.31 ± 0.06 % ID/g, the “Biodistribution: Blood” value [1, 4] was 1.35 ± 1.18 % ID/g and the “Biodistribution: Bone” value [1, 4] was 0.38 ± 0.07 % ID/g. The “Biodistribution: Brain” value [1, 4] was 0.02 ± 0.00 % ID/g, the “Biodistribution: Fat” value [1, 4] was 0.11 ± 0.10 % ID/g and the “Biodistribution: Heart” value [1, 4] was 0.15 ± 0.06 % ID/g. For the same compound, the “Biodistribution: Kidneys” value [1, 4] was 3.89 ± 1.35 % ID/g, the “Biodistribution: Large Intestines” value [1, 4] was 0.53 ± 0.13 % ID/g and the “Biodistribution: Liver” value [1, 4] was 0.33 ± 0.13 % ID/g. For the same compound, the “Biodistribution: Lungs” value [1, 4] was 0.39 ± 0.08 % ID/g, the “Biodistribution: Muscle” value [1, 4] was 0.13 ± 0.08 % ID/g and the “Biodistribution: Pancreas” value [1, 4] was 0.17 ± 0.05 % ID/g. The “Biodistribution: Small Intestine” value [1, 4] was 0.34 ± 0.21 % ID/g, the “Biodistribution: Spleen” value [1, 4] was 0.24 ± 0.07 % ID/g and the “Biodistribution: Stomach” value [1, 4] was 0.06 ± 0.02 % ID/g. For the same compound, the “Biodistribution: Testes” value [1, 4] was 0.12 ± 0.03 % ID/g, the “Biodistribution: Tumor” value [1, 4] was 6.58 ± 1.98 % ID/g and the “Biodistribution: Adrenal Glands” value [1, 2] was 3.48 ± 3.31 % ID/g. For the same compound, the “Biodistribution: Blood” value [1, 2] was 3.00 ± 0.38 % ID/g, the “Biodistribution: Bone” value [1, 2] was 2.18 ± 0.35 % ID/g and the “Biodistribution: Brain” value [1, 2] was 0.07 ± 0.01 % ID/g. The “Biodistribution: Fat” value [1, 2] was 0.25 ± 0.04 % ID/g, the “Biodistribution: Heart” value [1, 2] was 0.82 ± 0.10 % ID/g and the “Biodistribution: Kidneys” value [1, 2] was 11.1 ± 1.40 % ID/g. For the same compound, the “Biodistribution: Liver” value [1, 2] was 1.29 ± 0.17 % ID/g, the “Biodistribution: Lungs” value [1, 2] was 1.92 ± 0.26 % ID/g and the “Biodistribution: Muscle” value [1, 2] was 0.65 ± 0.09 % ID/g. For the same compound, the “Biodistribution: Pancreas” value [1, 2] was 0.66 ± 0.06 % ID/g, the “Biodistribution: Spleen” value [1, 2] was 1.00 ± 0.35 % ID/g and the “Biodistribution: Stomach” value [1, 2] was 0.32 ± 0.22 % ID/g. For the same compound, the “Biodistribution: Testes” value [1, 2] was 0.51 ± 0.09 % ID/g, the “Biodistribution: Tumor” value [1, 2] was 24.3±4.44 % ID/g and the “Biodistribution: Adrenal Glands” value (U87 xenografts; 1 h post-injection (n = 3)) was 1.41 ± 0.38 % ID/g. The “Biodistribution: Blood” value (U87 xenografts; 1 h post-injection (n = 3)) was 3.55 ± 0.22 % ID/g, the “Biodistribution: Bone” value (U87 xenografts; 1 h post-injection (n = 3)) was 2.51 ± 0.66 % ID/g and the “Biodistribution: Brain” value (U87 xenografts; 1 h post-injection (n = 3)) was 0.07 ± 0.01 % ID/g. For the same compound, the “Biodistribution: Fat” value (U87 xenografts; 1 h post-injection (n = 3)) was 0.28 ± 0.18 % ID/g, the “Biodistribution: Heart” value (U87 xenografts; 1 h post-injection (n = 3)) was 0.80 ± 0.06 % ID/g and the “Biodistribution: Kidneys” value (U87 xenografts; 1 h post-injection (n = 3)) was 8.92 ± 1.32 % ID/g. For the same compound, the “Biodistribution: Large Intestines” value (U87 xenografts; 1 h post-injection (n = 3)) was 0.44 ± 0.09 % ID/g, the “Biodistribution: Liver” value (U87 xenografts; 1 h post-injection (n = 3)) was 1.12 ± 0.08 % ID/g and the “Biodistribution: Lungs” value (U87 xenografts; 1 h post-injection (n = 3)) was 1.66 ± 0.10 % ID/g. The “Biodistribution: Muscle” value (U87 xenografts; 1 h post-injection (n = 3)) was 0.57 ± 0.21 % ID/g, the “Biodistribution: Pancreas” value (U87 xenografts; 1 h post-injection (n = 3)) was 0.65 ± 0.11 % ID/g and the “Biodistribution: Small Intestine” value (U87 xenografts; 1 h post-injection (n = 3)) was 1.07 ± 0.03 % ID/g. The “Biodistribution: Spleen” value (U87 xenografts; 1 h post-injection (n = 3)) was 0.48 ± 0.08 % ID/g, the “Biodistribution: Stomach” value (U87 xenografts; 1 h post-injection (n = 3)) was 0.28 ± 0.12 % ID/g and the “Biodistribution: Testes” value (U87 xenografts; 1 h post-injection (n = 3)) was 0.65 ± 0.09 % ID/g. For the same compound, the “Biodistribution: Tumor” value (U87 xenografts; 1 h post-injection (n = 3)) was 16.3 ± 1.72 % ID/g, the “Biodistribution: Adrenal Glands” value (U87 xenografts; 3 h post-injection (n = 3)) was 0.49 ± 0.30 % ID/g and the “Biodistribution: Blood” value (U87 xenografts; 3 h post-injection (n = 3)) was 0.98 ± 0.09 % ID/g. For the same compound, the “Biodistribution: Bone” value (U87 xenografts; 3 h post-injection (n = 3)) was 1.11 ± 0.27 % ID/g, the “Biodistribution: Brain” value (U87 xenografts; 3 h post-injection (n = 3)) was 0.03 ± 0.00 % ID/g and the “Biodistribution: Fat” value (U87 xenografts; 3 h post-injection (n = 3)) was 0.09 ± 0.04 % ID/g. The “Biodistribution: Heart” value (U87 xenografts; 3 h post-injection (n = 3)) was 0.28 ± 0.01 % ID/g, the “Biodistribution: Kidneys” value (U87 xenografts; 3 h post-injection (n = 3)) was 9.63 ± 1.23 % ID/g and the “Biodistribution: Large Intestines” value (U87 xenografts; 3 h post-injection (n = 3)) was 1.15 ± 0.37 % ID/g. For the same compound, the “Biodistribution: Liver” value (U87 xenografts; 3 h post-injection (n = 3)) was 0.71 ± 0.05 % ID/g, the “Biodistribution: Lungs” value (U87 xenografts; 3 h post-injection (n = 3)) was 0.72 ± 0.11 % ID/g and the “Biodistribution: Muscle” value (U87 xenografts; 3 h post-injection (n = 3)) was 0.34 ± 0.07 % ID/g. The “Biodistribution: Pancreas” value (U87 xenografts; 3 h post-injection (n = 3)) was 0.27 ± 0.06 % ID/g, the “Biodistribution: Small Intestine” value (U87 xenografts; 3 h post-injection (n = 3)) was 0.56 ± 0.16 % ID/g and the “Biodistribution: Spleen” value (U87 xenografts; 3 h post-injection (n = 3)) was 0.34 ± 0.04 % ID/g. The “Biodistribution: Stomach” value (U87 xenografts; 3 h post-injection (n = 3)) was 0.24 ± 0.02 % ID/g, the “Biodistribution: Testes” value (U87 xenografts; 3 h post-injection (n = 3)) was 0.25 ± 0.03 % ID/g and the “Biodistribution: Tumor” value (U87 xenografts; 3 h post-injection (n = 3)) was 7.95 ± 0.29 % ID/g.
